Data taken from ChEMBL document CHEMBL1152339, “Use of the in vivo hollow fiber assay in natural products anticancer drug discovery” (J Nat Prod, 2009).

Tests used:
KB [1] = assay: Growth inhibition of human KB cells xenografted in NCr nu/nu mouse at 0.78 to 3.125 mg/kg, sc once daily administered from day 3 to 6 after implantation measured on day 7 by MTT-based hollow-fiber test; assay type: functional; details: route subcutaneous
LNCaP [2] = assay: Growth inhibition of human LNCAP cells xenografted in NCr nu/nu mouse at 0.78 to 3.125 mg/kg, sc once daily administered from day 3 to 6 after implantation measured on day 7 by MTT-based hollow-fiber test; assay type: functional; details: route subcutaneous
LNCaP [3] = assay: Growth inhibition of human LNCAP cells xenografted in ip dosed NCr nu/nu mouse administered once daily from day 3 to 6 after implantation measured on day 7 by MTT-based hollow-fiber test; assay type: functional
KB [4] = assay: Growth inhibition of human KB cells xenografted in NCr nu/nu mouse at 0.78 to 3.125 mg/kg, ip once daily administered from day 3 to 6 after implantation measured on day 7 by MTT-based hollow-fiber test; assay type: functional; details: route intraperitoneal
LNCaP [5] = assay: Growth inhibition of human LNCAP cells xenografted in NCr nu/nu mouse at 0.78 to 3.125 mg/kg, ip once daily administered from day 3 to 6 after implantation measured on day 7 by MTT-based hollow-fiber test; assay type: functional; details: route intraperitoneal
KB [6] = assay: Growth inhibition of human KB cells xenografted in NCr nu/nu mouse at 6.2 to 25 mg/kg, ip once daily administered from day 3 to 6 after implantation measured on day 7 by MTT-based hollow-fiber test; assay type: functional; details: route intraperitoneal
LNCaP [7] = assay: Growth inhibition of human LNCAP cells xenografted in NCr nu/nu mouse at 6.2 to 25 mg/kg, sc once daily administered from day 3 to 6 after implantation measured on day 7 by MTT-based hollow-fiber test; assay type: functional; details: route subcutaneous
Lu1 [8] = assay: Growth inhibition of human Lu1 cells xenografted in NCr nu/nu mouse at 6.2 to 25 mg/kg, sc once daily administered from day 3 to 6 after implantation measured on day 7 by MTT-based hollow-fiber test; assay type: functional; details: dose mg/kg 3-6; route subcutaneous
Lu1 [9] = assay: Growth inhibition of human Lu1 cells xenografted in ip dosed NCr nu/nu mouse administered once daily from day 3 to 6 after implantation measured on day 7 by MTT-based hollow-fiber test; assay type: functional
KB [10] = assay: Growth inhibition of human KB cells xenografted in NCr nu/nu mouse at 6.2 to 25 mg/kg, sc once daily administered from day 3 to 6 after implantation measured on day 7 by MTT-based hollow-fiber test; assay type: functional; details: route subcutaneous
Lu1 [11] = assay: Growth inhibition of human Lu1 cells xenografted in NCr nu/nu mouse at 6.2 to 25 mg/kg, ip once daily administered from day 3 to 6 after implantation measured on day 7 by MTT-based hollow-fiber test; assay type: functional; details: dose mg/kg 3-6; route intraperitoneal
LNCaP [12] = assay: Growth inhibition of human LNCAP cells xenografted in NCr nu/nu mouse at 6.2 to 25 mg/kg, ip once daily administered from day 3 to 6 after implantation measured on day 7 by MTT-based hollow-fiber test; assay type: functional; details: route intraperitoneal
LNCaP [13] = assay: Growth inhibition of human LNCAP cells xenografted in NCr nu/nu mouse at 10 to 40 mg/kg, ip once daily administered from day 3 to 6 after implantation measured on day 7 by MTT-based hollow-fiber test; assay type: functional; details: route intraperitoneal
LNCaP [14] = assay: Growth inhibition of human LNCAP cells xenografted in NCr nu/nu mouse at 10 to 40 mg/kg, sc once daily administered from day 3 to 6 after implantation measured on day 7 by MTT-based hollow-fiber test; assay type: functional; details: route subcutaneous
LNCaP [15] = assay: Growth inhibition of human LNCAP cells xenografted in NCr nu/nu mouse at 5 to 20 mg/kg, ip once daily administered from day 3 to 6 after implantation measured on day 7 by MTT-based hollow-fiber test; assay type: functional; details: route intraperitoneal
LNCaP [16] = assay: Growth inhibition of human LNCAP cells xenografted in NCr nu/nu mouse at 5 to 20 mg/kg, sc once daily administered from day 3 to 6 after implantation measured on day 7 by MTT-based hollow-fiber test; assay type: functional; details: route subcutaneous
Lu1 [17] = assay: Growth inhibition of human Lu1 cells xenografted in NCr nu/nu mouse at 0.625 to 5 mg/kg, ip once daily administered from day 3 to 6 after implantation measured on day 7 by MTT-based hollow-fiber test; assay type: functional; details: dose mg/kg 3-6; route intraperitoneal
LNCaP [18] = assay: Growth inhibition of human LNCAP cells xenografted in NCr nu/nu mouse at 0.625 to 5 mg/kg, ip once daily administered from day 3 to 6 after implantation measured on day 7 by MTT-based hollow-fiber test; assay type: functional; details: route intraperitoneal
[19] = Acute toxicity in ip dosed mouse; assay type: organism-based; details: in vivo
MCF7 [20] = assay: Growth inhibition of human MCF7 cells xenografted in NCr nu/nu mouse at 0.625 to 5 mg/kg, sc once daily administered from day 3 to 6 after implantation measured on day 7 by MTT-based hollow-fiber test; assay type: functional; details: dose mg/kg 3-6; route subcutaneous
MCF7 [21] = assay: Growth inhibition of human MCF7 cells xenografted in NCr nu/nu mouse at 0.625 to 5 mg/kg, ip once daily administered from day 3 to 6 after implantation measured on day 7 by MTT-based hollow-fiber test; assay type: functional; details: dose mg/kg 3-6; route intraperitoneal
LNCaP [22] = assay: Growth inhibition of human LNCAP cells xenografted in NCr nu/nu mouse at 0.625 to 5 mg/kg, sc once daily administered from day 3 to 6 after implantation measured on day 7 by MTT-based hollow-fiber test; assay type: functional; details: route subcutaneous
MCF7 [23] = assay: Growth inhibition of human MCF7 cells xenografted in ip dosed NCr nu/nu mouse administered once daily from day 3 to 6 after implantation measured on day 7 by MTT-based hollow-fiber test; assay type: functional
Lu1 [24] = assay: Growth inhibition of human Lu1 cells xenografted in NCr nu/nu mouse at 0.625 to 5 mg/kg, sc once daily administered from day 3 to 6 after implantation measured on day 7 by MTT-based hollow-fiber test; assay type: functional; details: dose mg/kg 3-6; route subcutaneous

In the case of `CC(=O)O[C@@H]1O[C@@H]([C@H]2c3cccc(O)c3C(=O)c3c(O)cc(C)cc32)[C@H](O)[C@@H](OC(=O)C=C(C)C)[C@H]1O` [ALVARADOIN H], the “growth inhibition (GI)” value (KB [1]) is reported as 1%, the “growth inhibition (GI)” value (LNCaP [2]) is reported as 10% and the ED50 (LNCaP [3]) is reported as 0.29 µM. The “growth inhibition (GI)” value (KB [4]) was 43% and the “growth inhibition (GI)” value (LNCaP [5]) was 47%.

With `C[C@@H]1CC[C@@]2(OC1)O[C@H]1C[C@H]3[C@@H]4CC=C5C[C@@H](O[C@@H]6O[C@H](CO)[C@@H](O[C@@H]7O[C@@H](C)[C@H](O)[C@@H](O)[C@H]7O)[C@H](O)[C@H]6O[C@@H]6O[C@@H](C)[C@H](O)[C@@H](O)[C@H]6O)CC[C@]5(C)[C@H]4CC[C@]3(C)[C@H]1[C@@H]2C` [DIOSCIN] the “growth inhibition (GI)” value (KB [6]) was 79%, the “growth inhibition (GI)” value (LNCaP [7]) was 36% and the ED50 (LNCaP [3]) was 1.7 µM. The “growth inhibition (GI)” value (Lu1 [8]) was 0%, the ED50 (Lu1 [9]) was 1.2 µM and the “growth inhibition (GI)” value (KB [10]) was 4%. The “growth inhibition (GI)” value (Lu1 [11]) was 25% and the “growth inhibition (GI)” value (LNCaP [12]) was 37%.

In the case of `COc1ccc([C@H]2COc3c(ccc4c3C=CC(C)(CCC=C(C)C)O4)C2)c(O)c1O` (some centres undefined) [NITIDULIN], the “growth inhibition (GI)” value (LNCaP [13]) is reported as 54%, the ED50 (LNCaP [3]) is reported as 9.7 µM and the “growth inhibition (GI)” value (LNCaP [14]) is reported as 0%.

With `O=C1OC[C@@H]2Cc3cc4c(cc3[C@@H](c3ccc5c(c3)OCO5)[C@H]12)OCO4` [PICROPOLYGAMAIN] the “growth inhibition (GI)” value (LNCaP [15]) was 21%, the ED50 (LNCaP [3]) was 3.1 µM and the “growth inhibition (GI)” value (LNCaP [16]) was 3%.

With `COC(=O)[C@H]1[C@@H](O)[C@@]2(O)c3c(OC)cc(O[C@@H]4O[C@@H]([C@H](O)CO)CO[C@H]4OC)cc3O[C@@]2(c2ccc(OC)cc2)[C@@H]1c1ccccc1` [SILVESTROL] the “growth inhibition (GI)” value (Lu1 [17]) was 12%, the “growth inhibition (GI)” value (LNCaP [18]) was 15% and the MTD [19] was 2.5 mg/kg. The “growth inhibition (GI)” value (MCF7 [20]) was 5%, the “growth inhibition (GI)” value (MCF7 [21]) was 20% and the ED50 (LNCaP [3]) was 0.0015 µM. The ED50 (Lu1 [9]) was 0.0012 µM, the “growth inhibition (GI)” value (LNCaP [22]) was 12% and the ED50 (MCF7 [23]) was 0.0015 µM. The “growth inhibition (GI)” value (Lu1 [24]) was 0%.
